Experiment [1] deals with MDA-MB-231 cells. Nature of the experiment: Scratch (migration) assay. The format is cell-based, human. As to conditions: 3 and 6 µM; 12 and 24 h. Here is the method:
The migration capacity of highly metastatic human breast cancer MDA-MB-231 cells was assessed by in-vitro scratch assay as described previously[36] with some modifications. Briefly, cells were plated in 12 well plates and a scratch was created by scraping the cells with a sterile 10 μL pipet tip in the middle of the culture well. After removal of cellular debris, the cells were treated with different concentrations of the test compound. Images of the wound area were captured at 0, 12 and 24 h post-treatment. Wound area was measured by TScratch software and data were expressed as percent (%) open area of control and treated cells.

The test system of experiment [2] is MDA-MB-231 cells. Nature of the experiment: Western blotting of DNA damage and apoptosis markers. It is filed as cell-based, human. The conditions noted are these: 6 and 12 µM, 48 h. The protocol:
Cells (MDA-MB-231) were seeded in 6 well plates and treated either with vehicle control (DMSO) or with different concentrations (6 and 12 µM) of compound 19 for 48 h. After the treatment cell lysate was prepared and western blotting was performed as described previously. Briefly, the cells were lysed by very brief sonication. Sonicated samples were centrifuged and the supernatant was collected and used for ligation assay and western blotting.
Background: Immunoblotting shows a protein as a band on a membrane.

Experiment [3] deals with MDA-MB-231 cells. Nature of the experiment: Comet assay. It is filed as cell-based, human. The conditions noted are these: 12 µM, 48 h. The protocol:
Comet assay was performed as described by Olive et al ^3 with slight modifications. MDA-MB-231 cells treated with compound 19 at 12µM for 48h. The harvested cells were mixed with low melting point agarose and pipet the 200μl of cell suspension onto agarose coated surface of frosted slides. The samples were lysed for overnight at 4 °C after the lysis, electrophoresis performed at 40mA for 30mins. The slides neutralized by water, stained with propidium iodide and images were captured by fluorescence microscope. As shown in Supplementary Fig. 71 the treated samples (B) have increased length of DNA tail as compared to control sample (A). This increase in the tail length of DNA occurs due to DNA damage which is induced by compound 19 in MDA-MB-231 cells.

Experiment [4] relates to DNA ligase activity in 4T1 cell lysate. Nature of the experiment: Ex-vivo ligation assay with lysate of treated cells. The conditions noted are these: 4T1, treated 48 h. The format is cell-based, mouse. Here is the method:
The MDA-MB-231 and 4T1 cells were treated with different concentrations of compound 19 for 48h. Cell lysate were prepared as described previously ^6 for the ligation assay. Here we used same DNA substrate which was used in FEN1 flap cleavage assay so that we can check the activity of hLigI and FEN1 proteins in compound 19 treated samples. The reactions were performed as described previously ^6. In the Supplementary Fig. 74 cleaved product remain (25 mer) same. This cleaved product occurs after the cleavage of 25+6 mer oligo by FEN1 protein, since the cleaved product (25 mer) remains same in treated as well as in control samples we can conclude that the compound 19 unable to inhibit the FEN1 protein inside the cells. The cleaved product (25 mer) make a double strand nicked substrate for hLig I protein with 27 mer and 52 mer oligo used in the reaction. hLigI protein gives rise to ligated (52 mer oligo) product after the completion of reaction. In the treated samples, ligated product (52 mer) decreases as compared to untreated samples.

The target in another experiment is T1, hLigI and DNA complex (Homo sapiens, UniProt P18858).
T1 construct: made in house
Nature of the experiment: Electrophoretic mobility shift assay (EMSA). It is filed as binding. The conditions noted are these: 120, 250, 500 µM. Here is the method:
EMSA was performed as described previously. Briefly, in 20 μl reaction volume 2 pmol non-ligatable nicked DNA substrate was incubated with DMSO (vehicle control) or with different concentrations (120, 250, 500 µM) of compound 19 incubated with 10 pmol of hligI in ligation buffer. After the incubation, samples were separated by 6.5% native PAGE and bands were detected and imaged by Image Quant LAS 4010 (GE Life sciences).
For orientation: Mobility shift assays separate free from complexed probe on a gel.

Another experiment deals with PARP1 (Homo sapiens, UniProt P09874). Nature of the experiment: PARP1 activity assay (NAD fluorescence). As to conditions: compound 19 at 5, 10 and 20 µM.
PARP1, sequence (P09874 whole entry): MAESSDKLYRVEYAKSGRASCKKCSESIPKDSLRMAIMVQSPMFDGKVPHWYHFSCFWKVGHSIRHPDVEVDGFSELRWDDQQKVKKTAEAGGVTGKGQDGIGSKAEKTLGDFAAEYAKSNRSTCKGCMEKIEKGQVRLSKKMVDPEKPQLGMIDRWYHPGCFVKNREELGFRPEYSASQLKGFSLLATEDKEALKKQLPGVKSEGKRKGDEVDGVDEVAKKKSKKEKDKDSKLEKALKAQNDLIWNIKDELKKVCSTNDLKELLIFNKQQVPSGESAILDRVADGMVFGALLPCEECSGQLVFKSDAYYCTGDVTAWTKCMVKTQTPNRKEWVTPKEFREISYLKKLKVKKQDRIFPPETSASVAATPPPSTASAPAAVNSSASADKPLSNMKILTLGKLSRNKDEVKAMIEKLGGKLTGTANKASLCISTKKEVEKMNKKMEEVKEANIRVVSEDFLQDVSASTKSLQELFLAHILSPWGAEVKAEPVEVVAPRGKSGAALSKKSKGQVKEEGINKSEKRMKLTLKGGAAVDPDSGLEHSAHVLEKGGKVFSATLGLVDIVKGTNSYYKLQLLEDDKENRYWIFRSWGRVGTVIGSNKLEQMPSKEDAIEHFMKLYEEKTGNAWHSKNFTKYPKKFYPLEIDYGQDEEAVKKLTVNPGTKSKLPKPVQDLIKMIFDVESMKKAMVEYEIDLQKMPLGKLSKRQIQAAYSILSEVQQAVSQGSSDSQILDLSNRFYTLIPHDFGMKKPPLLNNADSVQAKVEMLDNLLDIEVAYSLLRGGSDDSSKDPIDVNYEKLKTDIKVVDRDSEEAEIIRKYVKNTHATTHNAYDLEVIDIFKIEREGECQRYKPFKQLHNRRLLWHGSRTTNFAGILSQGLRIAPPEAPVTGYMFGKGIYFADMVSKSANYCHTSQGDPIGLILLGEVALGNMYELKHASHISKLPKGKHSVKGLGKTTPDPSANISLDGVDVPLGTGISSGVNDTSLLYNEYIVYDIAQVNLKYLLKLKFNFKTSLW

T1 sequence (P18858 whole entry, one chain of several): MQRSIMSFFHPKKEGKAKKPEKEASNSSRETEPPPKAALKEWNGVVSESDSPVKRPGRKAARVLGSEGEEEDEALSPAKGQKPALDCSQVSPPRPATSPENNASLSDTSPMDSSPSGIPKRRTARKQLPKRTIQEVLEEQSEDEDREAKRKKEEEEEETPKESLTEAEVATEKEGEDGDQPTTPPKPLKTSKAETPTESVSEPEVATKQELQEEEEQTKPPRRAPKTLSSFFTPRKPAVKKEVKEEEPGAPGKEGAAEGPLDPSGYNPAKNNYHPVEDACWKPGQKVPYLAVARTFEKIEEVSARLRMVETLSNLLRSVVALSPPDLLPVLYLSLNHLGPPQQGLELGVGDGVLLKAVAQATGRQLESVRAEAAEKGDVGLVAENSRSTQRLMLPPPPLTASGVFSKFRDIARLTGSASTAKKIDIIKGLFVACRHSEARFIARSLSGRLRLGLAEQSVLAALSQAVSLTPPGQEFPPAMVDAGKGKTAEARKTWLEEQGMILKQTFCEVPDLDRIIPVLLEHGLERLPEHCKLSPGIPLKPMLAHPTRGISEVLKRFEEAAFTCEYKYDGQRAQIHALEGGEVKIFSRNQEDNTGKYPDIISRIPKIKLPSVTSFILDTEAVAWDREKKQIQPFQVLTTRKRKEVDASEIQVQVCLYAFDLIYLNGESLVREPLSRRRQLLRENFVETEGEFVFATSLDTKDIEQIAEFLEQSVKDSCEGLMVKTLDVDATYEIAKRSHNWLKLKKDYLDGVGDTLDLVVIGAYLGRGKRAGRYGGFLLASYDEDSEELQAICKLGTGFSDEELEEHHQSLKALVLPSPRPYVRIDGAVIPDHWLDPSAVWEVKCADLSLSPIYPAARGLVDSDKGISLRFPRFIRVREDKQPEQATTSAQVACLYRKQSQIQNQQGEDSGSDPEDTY
Text for PARP1: Human PARP1 full length protein was purified as described previously ^4,5.
Samples were cooled and fluorescence measurement carried out at excitation 360nm and emission range 445nm.

As to `COc1cc(/C=C/c2cc(=O)oc3c2ccc2ccccc23)cc(OC)c1` [Compound 19, (E)-4-(3,5-dimethoxystyryl)-2H-benzo[h]chromen-2-one], the “Cell migration (percent open area)” value with MDA-MB-231 cells [1] is “significantly inhibit the cell migration”. In the experiment on MDA-MB-231 cells [2], the “Apoptotic signaling (p53, MDM2, PCNA, caspase 9, caspase 3, PARP-1)” value is “promotes p53 mediated intrinsic pathway of apoptosis” and the “DNA damage marker γH2AX expression” value is reported as “increased expression of γH2AX”. The “DNA tail length (comet assay)” value in the experiment on MDA-MB-231 cells [3] is “significant increase in the tail length of treated cells”. The “DNA ligase activity in cell free extracts of treated cells” value in experiment [4] was “can inhibit DNA ligase activity”. In addition, the “hLigI and DNA complex formation (EMSA)” value on hLigI and DNA complex was “decreased the hLigI and DNA complex formation”. Further, the “Inhibition of PARP1 activity” value at PARP1 is on record as “not able to inhibit”.
